The values that follow come from patent US20110288036A1, “Methods for Treating or Preventing Vascular Graft Failure” (priority 2010, published 2011).

Series [1] relates to human smooth muscle cell (SMC). Nature of the series: MTS cell proliferation assay, smooth muscle cells. In kind it is cell-based. The following applies: pre-treatment 20 ng/ml TNF-α. As to the method:
Primary human aortic endothelial cells (HAEC) and primary human aortic smooth muscle cells (HASMC) were obtained from Invitrogen; primary human coronary artery endothelial cells (HCAEC) were obtained from Lonza.
All cultures were maintained in 25 cm^2 polystyrene tissue culture flasks in a 37° C., 5% CO2/95% air environment, with cell culture media refreshed every other day. All cells were seeded at a density of 20,000˜30,000 cells/cm^2, as required by the specific experiment, and allowed to grow to 80-90% confluence before being harvested/passaged. Only cells from early passages (numbers 2-8) were utilized in experiments.
The CellTiter 96® AQueous Non-Radioactive Cell Proliferation Assay (Promega) was used to assess drug effects on cell proliferation according to the manufacturer's instructions. Briefly, HAECs and HASMCs from early passages were grown to 80-90% confluence in 25 cm^2 tissue culture flasks in a 37° C./5% CO2 incubator prior to harvest. 200 μl of each type of cell suspension (at 20,000 cells/cm^2) was seeded onto separate 96-well plates to yield an approximate 60% confluence per well. Cells were allowed to adhere to the plate surface overnight, followed by addition of 20 ng/ml of TNF-α to stimulate production of inflammatory agents. After a 4-6 hour incubation period, MMI-0100 peptide drug ([…]; SEQ ID NO: 1) was added and cells incubated for another 20-24 hours. Each well was then supplemented with 100 μl of fresh medium and 20 μl of CellTiter 96® AQueous One Solution Reagent and incubated for an additional 1.5-2 hours prior to measuring absorbance of each well at 490 nm with a SoftMax®-equipped plate reader.
In order to determine the effect of pharmacological doses of MMI-0100 ([…]; SEQ ID NO: 1) on human endothelial cell (EC) and smooth muscle cell (SMC) proliferation, human EC and SMC cultures were treated with three concentrations (0.25 mM, 0.5 mM, and 1 mM) of MMI-0100 ([…] (SEQ ID NO: 1)) following pre-treatment with TNF-α.
On the technique in general: Tetrazolium assays rely on reduction of a dye to a coloured formazan, in cell work by metabolically active cells.

Series [2] relates to immortalized human pleural mesothelial cells (ATCC CRL-9444). The series is described as follows: IL-6 ELISA in TNF-α-stimulated mesothelial cells. In kind it is cell-based. On the procedure:
Expression of inflammatory cytokines was induced by applying 1 or 10 ng/ml of TNF-α to cultured mesothelial cells. Briefly, immortalized human pleural mesothelial cells (ATCC CRL-9444) were grown in Medium199 with Earle's BSS, 0.75 mM L-glutamine (Mediatech Inc., Manassas, Va.), 1.25 g/l sodium bicarbonate (Sigma), 3.3 nM epidermal growth factor (EGF) (MBL International, Woburn, Mass.), 40 nM hydrocortisone (Sigma), 870 nM insulin (MBL International), 20 mM HEPES (Sigma), trace elements mixture B (Mediatech Inc., Waltham, Mass.), 10% fetal bovine serum (FBS) (Hyclone), and 1% penicillin/streptomycin (Mediatech Inc., Waltham, Mass.). […] Human mesothelial cells were treated with two different concentrations (1 and 10 ng/mL) of TNF-α for 2, 6, 12, and 24 hours (data not shown). […] Without TNF-α stimulation, mesothelial cells made negligible amounts of IL-6. […] In subsequent experiments designed to determine whether the MMI-0100 peptide ([…]; SEQ ID NO: 1) could reduce TNF-α induced IL-6 expression, both 1 and 10 ng/mL of TNF-α were selected as stimuli. 10 ng/mL of TNF-α is regarded as more physiologically relevant for mesothelial cells.
Prior to cytokine and/or inhibitor treatment, cells were allowed to acclimate in serum-free media consisting of only Medium199 with Earle's BSS, 0.75 mM L-glutamine, 1.25 g/l sodium bicarbonate, 20 mM HEPES, trace elements mixture B (Mediatech Inc., Waltham, Mass.), and 1% penicillin/streptomycin (Mediatech Inc., Waltham, Mass.) for 24 hours. […] Average concentration of IL-6 (pg/ml per 10^5 cells) at each time was determined by cytokine-specific ELISA.
For orientation: ELISA stands for enzyme-linked immunosorbent assay.

The test system of a further series is JNK. The series is described as follows: JNK radiometric kinase assay. In kind it is biochemical. The following applies: peptide 100 μM. The source says: A commercial radiometric assay service was used to test the specificity and potency of MMI-0100 ([…]; SEQ ID NO: 1) by measuring its half maximal inhibitory concentrations (IC50). This quantitative assay measures how much MK2 inhibitor (MMI-0100; […] (SEQ ID NO: 1)) is needed to inhibit 50% of a given biological process or component of a process (i.e., an enzyme, cell, or cell receptor). Specifically, in these assays, a positively charged substrate is phosphorylated with a radiolabeled phosphate group from an ATP if the kinase is not inhibited by an inhibitor peptide. The positively charged substrate then is attracted to a negatively charged filter membrane, quantified with a scintillation counter, and compared to a 100% activity control. ATP concentrations within 15 μM of the apparent Km for ATP were chosen since an ATP concentration near the Km may allow for the kinases to have the same relative amount of phosphorylation activity. […]
For the JNK (c-Jun N-terminal Kinase) radiometric assay, 5-10 mU of JNK was incubated with 50 mM Tris pH 7.5, 0.1 mM EGTA, 0.1% b-mercaptoethanol, 3 μM ATF2 (a substrate for JNK), 10 mM MgAcetate, and 10 μM of [y-^33P-ATP] in the final reaction volume of 25 μl. […] The washed P30 filtermat was dried and its radioactivity was measured by scintillation counter.
IC50 values for inhibitor peptides were determined using Millipore's IC50 Profiler Express service. […]

Series [3] has as its system mouse lung endothelial cells (MLEC). The series is described as follows: Murine endothelial cell apoptosis, annexin V flow cytometry. In kind it is cell-based. The following applies: 24 hours; any dose. On the procedure: The apoptotic effect of MMI-0100 ([…]; SEQ ID NO: 1) on mouse lung endothelial cells (MLEC) was measured at 24 hours after MMI-0100 ([…]; SEQ ID NO: 1) treatment. MLEC were removed from the tissue culture plate by trypsin, and re-suspended at a concentration of 1.0×10^6 cells/ml. Apoptotic cells were detected by AlexaFluor® 488 annexin V/Dead Cell Apoptosis Kit (Invitrogen) using flow cytometry sorting analysis.

For the sequence YARAAARQARAKALARQLGVAA [MMI-0100], in series [1] (0.25 mM), the “SMC proliferation vs TNF-α alone control” value was “slightly increased cell proliferation”. Also, the “increase in SMC proliferation vs TNF-α alone control” value is given as 12% in series [1] (0.5 mM) and 7% in series [1] (1 mM). The IL-6 expression entry is given as “reduced IL-6 expression to the levels at or below the untreated baseline” in series [2] (TNF-α 1 ng/mL, MMI-0100 1000 or 3000 μM, 6, 12, 24 hours); “reduced IL-6 expression to the levels of the untreated baseline” in series [2] (TNF-α 10 ng/mL, 3000 μM, every time point); “still effective in reducing IL-6 expression triggered by TNF-α” in series [2] (TNF-α 10 ng/mL, 6, 12, 24 hours). In addition, in the series with JNK, the “Percent Activity, JNK” value came to 92%. Also, the EC apoptosis entry in series [3] is reported as “did not induce EC apoptosis at any dose”.
